{"source": "patent US9433687B2", "about": "“Anti-Notch3 antibodies and antibody-drug conjugates” (Pfizer Inc., priority 2012, dated 2016)", "key": {"[1]": {"tested_on": "OVCAR3 ovarian xenografts", "experiment": "OVCAR3 ovarian xenograft model", "conditions": "dose 60 mg/kg (30 mg/kg twice a day) intraperitoneally Q7d×4"}, "[2]": {"experiment": "OVCAR3 ovarian xenograft model", "conditions": "female, SCID Hairless Outbred (SHO), mouse, in vivo, ip"}}}
{"smiles": "CC(=O)O[C@H]1C(=O)[C@@]2(C)[C@H]([C@H](OC(=O)c3ccccc3)[C@]3(O)C[C@H](OC(=O)[C@H](O)[C@@H](NC(=O)c4ccccc4)c4ccccc4)C(C)=C1C3(C)C)[C@]1(OC(C)=O)CO[C@@H]1C[C@@H]2O", "note": "[paclitaxel, reference compound]", "values": [{"measurement": "tumor volume", "setting": "[1]; DAY 0", "value": 169, "unit": "mm3"}, {"measurement": "tumor volume", "setting": "[1]; DAY 6", "value": 139, "unit": "mm3"}, {"measurement": "tumor volume", "setting": "[1]; DAY 11", "value": 85, "unit": "mm3"}, {"measurement": "tumor volume", "setting": "[1]; DAY 14", "value": 84, "unit": "mm3"}, {"measurement": "tumor volume", "setting": "[1]; DAY 18", "value": 61, "unit": "mm3"}, {"measurement": "tumor volume", "setting": "[1]; DAY 21", "value": 50, "unit": "mm3"}, {"measurement": "tumor volume", "setting": "[1]; DAY 25", "value": 41, "unit": "mm3"}, {"measurement": "tumor volume", "setting": "[1]; DAY 28", "value": 44, "unit": "mm3"}, {"measurement": "tumor volume", "setting": "[1]; DAY 31", "value": 43, "unit": "mm3"}, {"measurement": "tumor volume", "setting": "[1]; DAY 34", "value": 50, "unit": "mm3"}, {"measurement": "tumor volume", "setting": "[1]; DAY 38", "value": 55, "unit": "mm3"}, {"measurement": "tumor volume", "setting": "[1]; DAY 41", "value": 38, "unit": "mm3"}, {"measurement": "tumor volume", "setting": "[1]; DAY 45", "value": 39, "unit": "mm3"}, {"measurement": "tumor volume", "setting": "[1]; DAY 49", "value": 40, "unit": "mm3"}, {"measurement": "tumor volume", "setting": "[1]; DAY 53", "value": 40, "unit": "mm3"}, {"measurement": "tumor volume", "setting": "[1]; DAY 56", "value": 39, "unit": "mm3"}, {"measurement": "tumor volume", "setting": "[1]; DAY 59", "value": 37, "unit": "mm3"}, {"measurement": "tumor volume", "setting": "[1]; DAY 63", "value": 42, "unit": "mm3"}, {"measurement": "tumor volume", "setting": "[1]; DAY 67", "value": 33, "unit": "mm3"}, {"measurement": "tumor volume", "setting": "[1]; DAY 70", "value": 28, "unit": "mm3"}, {"measurement": "tumor volume", "setting": "[1]; DAY 74", "value": 32, "unit": "mm3"}, {"measurement": "tumor volume", "setting": "[1]; DAY 77", "value": 31, "unit": "mm3"}, {"measurement": "tumor volume", "setting": "[1]; DAY 80", "value": 31, "unit": "mm3"}, {"measurement": "tumor volume", "setting": "[1]; DAY 83", "value": 38, "unit": "mm3"}, {"measurement": "tumor volume", "setting": "[1]; DAY 87", "value": 28, "unit": "mm3"}, {"measurement": "tumor volume", "setting": "[1]; DAY 90", "value": 32, "unit": "mm3"}, {"measurement": "tumor volume", "setting": "[1]; DAY 94", "value": 30, "unit": "mm3"}, {"measurement": "tumor volume", "setting": "[1]; DAY 97", "value": 31, "unit": "mm3"}, {"measurement": "tumor volume", "setting": "[1]; DAY 102", "value": 26, "unit": "mm3"}, {"measurement": "tumor volume", "setting": "[1]; DAY 105", "value": 31, "unit": "mm3"}, {"measurement": "tumor volume", "setting": "[1]; DAY 108", "value": 28, "unit": "mm3"}, {"measurement": "tumor volume", "setting": "[1]; DAY 111", "value": 26, "unit": "mm3"}, {"measurement": "tumor volume", "setting": "[1]; DAY 115", "value": 31, "unit": "mm3"}, {"measurement": "tumor volume", "setting": "[1]; DAY 118", "value": 26, "unit": "mm3"}, {"measurement": "tumor volume", "setting": "[1]; DAY 122", "value": 31, "unit": "mm3"}, {"measurement": "MTD", "setting": "[2]", "value": 60, "unit": "mg/kg"}]}
